# Like-named read-outs stand apart in the source and are kept apart here.
# Tests used:
# ATPase DDX3 = biological target: T1, ATPase DDX3 (Homo sapiens, UniProt O00571); experiment: Selectivity of 20a: ATPase DDX3; type: biochemical; settings: >200 = less than 20% of inhibition at 200 μM, the highest concentration tested
# T1 construct: made in house; host or cells: E. coli
# [1] = test system: HIV-1 strains carrying resistance mutations; experiment: microbe, parasite or virus in culture; type: cell-based; settings: for IC50: Human immunodeficiency virus 1, TZM-bl
# Water Solubility Assay = type: physicochemical; settings: thermodynamic from solid
# Protocol: Water Solubility Assay. Each solid compound (1 mg) was added to 1 mL of water. The samples were shaked in a shaker bath at room temperature for 24-36 h. The suspensions were filtered through a 0.45 μm nylon filter (Acrodisc), and the solubilized compound determined by LC-MS-MS assay. For each compound the determination was performed in triplicate.
# For the quantification was used an LC-MS system consisted of a Varian apparatus (Varian Inc) including a vacuum solvent degassing unit, two pumps (212-LC), a Triple Quadrupole MSD (Mod. 320-LC) mass spectrometer with ES interface and Varian MS Workstation System Control Vers. 6.9 software. […] The flow rate was 0.2 mL min^−1 and injection volume was 5 μL. The instrument operated in positive mode and parameters were: detector 1850 V, drying gas pressure 25.0 psi, desolvation temperature 300.0° C., nebulizing gas 40.0 psi, needle 5000 V and shield 600 V. Nitrogen was used as nebulizer gas and drying gas. Collision induced dissociation was performed using Argon as the collision gas at a pressure of 1.8 mTorr in the collision cell.
# [2] = test system: HCV Jc1 (genotype 2a virus); experiment: HCV infectious cell culture system, NS5A immunostaining; settings: Hepatitis C virus, Huh7.5, read-out: HCV EC50
# [3] = test system: Hepatitis C Virus (HCV) replicon system; experiment: HCV replicon system, luciferase method in LucUbiNeo-ET cells
# T1 sequence (O00571 whole entry): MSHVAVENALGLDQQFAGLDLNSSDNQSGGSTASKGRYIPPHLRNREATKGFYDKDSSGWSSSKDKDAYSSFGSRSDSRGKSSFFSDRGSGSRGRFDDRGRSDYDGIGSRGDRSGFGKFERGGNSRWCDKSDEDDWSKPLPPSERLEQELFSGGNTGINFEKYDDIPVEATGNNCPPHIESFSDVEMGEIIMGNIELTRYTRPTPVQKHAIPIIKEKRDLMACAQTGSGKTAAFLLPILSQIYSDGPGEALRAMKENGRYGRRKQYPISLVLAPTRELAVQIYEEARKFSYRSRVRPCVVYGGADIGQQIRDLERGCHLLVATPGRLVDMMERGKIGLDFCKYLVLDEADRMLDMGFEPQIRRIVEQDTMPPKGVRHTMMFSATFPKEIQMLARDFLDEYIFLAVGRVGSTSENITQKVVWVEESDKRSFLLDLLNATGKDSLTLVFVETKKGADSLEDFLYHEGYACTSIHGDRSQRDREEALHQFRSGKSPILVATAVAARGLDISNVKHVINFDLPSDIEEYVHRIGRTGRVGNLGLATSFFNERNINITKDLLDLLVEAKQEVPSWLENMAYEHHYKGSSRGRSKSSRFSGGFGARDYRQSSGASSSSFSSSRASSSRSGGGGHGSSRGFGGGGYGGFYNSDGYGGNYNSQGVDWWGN
structure (smiles),measurement,setting,value
"CCCCc1cn(-c2ccc(NC(=O)Nc3ccccc3C)cc2)nn1 [Compound 20a, 1-(4-(4-butyl-1H-1,2,3-triazol-1-yl)phenyl)-3-o-tolylurea]",IC50,ATPase DDX3,> 200000 nM
same,IC50,"[1]; read-out: IC50 [95% CI] (μM), HIV-1 strain 7404",0.22 µM
same,IC50,"[1]; read-out: IC50 [95% CI] (μM), HIV-1 strain 7406",0.33 µM
same,IC50,"[1]; read-out: IC50 [95% CI] (μM), HIV-1 strain 11808",0.23 µM
same,IC50,"[1]; read-out: IC50 [95% CI] (μM), HIV-1 strain 11845",0.37 µM
same,IC50,"[1]; read-out: IC50 [95% CI] (μM), HIV-1 strain 12227",0.94 µM
same,IC50,"[1]; read-out: IC50 [95% CI] (μM), HIV-1 strain 12235",0.36 µM
same,"Fold change, strain 7404","[1]; resistant strain IC50 to wild type strain IC50 ratio, 7404 NRTIs",0.2
same,"Fold change, strain 7406","[1]; resistant strain IC50 to wild type strain IC50 ratio, 7406 NRTIs",0.3
same,"Fold change, strain 11808","[1]; resistant strain IC50 to wild type strain IC50 ratio, 11808 PIs",0.2
same,"Fold change, strain 11845","[1]; resistant strain IC50 to wild type strain IC50 ratio, 11845 INIs",0.3
same,"Fold change, strain 12227","[1]; resistant strain IC50 to wild type strain IC50 ratio, 12227 NNRTIs",0.8
same,"Fold change, strain 12235","[1]; resistant strain IC50 to wild type strain IC50 ratio, 12235 NNRTIs",0.3
same,"activity against resistant HIV viruses, in words",[1]; viruses carrying resistance mutations,retained full activity
same,solubility,"Water Solubility Assay; experimental aqueous solubility, read-out: LogS (converted)",0.0891 µM
same,solubility,"Water Solubility Assay; room temperature, 24-36 h, read-out: Aq. Solub.",0.135 µg/mL
same,EC50,[2],3800 nM
same,"activity against HCV, in words",[3],best activity
same,EC50,"[3]; Hepatitis C virus, 48 h, read-out: EC50 (μM) HCV replicon system",0.97 µM

# Reference: patent US10941121B2 (AZIENDA OSPEDALIERA UNIVERSITARIA SENESE, priority 2015, dated 2021)
